These are literature values, as cited in patent US9999656B2, “Treatment of short bowel syndrome patients with colon-in-continuity” (Shire-NPS Pharmaceuticals, Inc., priority 2004, dated 2018).

For data set [1] the following is noted: GLP-2; approximately; cited from earlier work.
The subject of another data set is SBS jejunostomy patients. The settings on record: cited from earlier work.

On to glucagon-like peptide-2 [native GLP-2], for which the half-life entry in data set [1] is reported as “approximately seven”. For the same substance, the “effect on wet weight absorption” value in the data set with SBS jejunostomy patients (native GLP-2 400 μg twice daily for 35 days, p=0.040) is 420 ± 480 g/day. Also, the “intestinal wet weight absorption (in words)” value with SBS jejunostomy patients (open-label study, pharmacologic doses, SBS jejunostomy patients (Jeppesen et al.)) was “significant improvement in intestinal wet weight absorption”.
